Laboratory results as given in patent US20230139835A1, “ALLULOSE IN CRYSTALLINE FORM” (SAVANNA INGREDIENTS GMBH, priority 2020, published 2023).

Tests used:
[1] = Particle size distribution by dynamic image analysis (Camsizer X2 with X-Jet module); assay type: physicochemical
Experimental: Said preferred particle size distribution is determined by means of dynamic image analysis (Camsizer X2 from Retsch with X-Jet module), wherein a dispersion pressure of 5, 20, or 460 kPa was applied. The evaluation was carried out in three size models, namely:
Xc(min) Particle width which is determined from the narrowest of all measured chords xc;
XFe(max) Particle length which is determined from the longest of all measured Feret diameters xFe;
Xarea Equivalent particle diameter which corresponds to the circle equivalent diameter.

[2] = cited from earlier work

SMILES | Minimum d10 XFe(max) ([1]; dispersion pressure 5 kPa) | Minimum d10 Xarea ([1]; dispersion pressure 5 kPa) | Minimum d10 Xc(min) ([1]; dispersion pressure 5 kPa) | Minimum d50 XFe(max) ([1]; dispersion pressure 5 kPa) | Minimum d50 Xarea ([1]; dispersion pressure 5 kPa) | Minimum d50 Xc(min) ([1]; dispersion pressure 5 kPa) | Minimum d90 XFe(max) ([1]; dispersion pressure 5 kPa) | Minimum d90 Xarea ([1]; dispersion pressure 5 kPa) | Minimum d90 Xc(min) ([1]; dispersion pressure 5 kPa) | Minimum d10 XFe(max) ([1]; dispersion pressure 20 kPa) | Minimum d10 Xarea ([1]; dispersion pressure 20 kPa) | Minimum d10 Xc(min) ([1]; dispersion pressure 20 kPa) | Minimum d50 XFe(max) ([1]; dispersion pressure 20 kPa) | Minimum d50 Xarea ([1]; dispersion pressure 20 kPa) | Minimum d50 Xc(min) ([1]; dispersion pressure 20 kPa) | Minimum d90 XFe(max) ([1]; dispersion pressure 20 kPa) | Minimum d90 Xarea ([1]; dispersion pressure 20 kPa) | Minimum d90 Xc(min) ([1]; dispersion pressure 20 kPa) | Minimum d10 XFe(max) ([1]; dispersion pressure 460 kPa) | Minimum d10 Xarea ([1]; dispersion pressure 460 kPa) | also measured
O=C(CO)C(O)C(O)C(O)CO (stereo not shown) [Comparative Example V1, allulose] | 90 μm | 75 μm | 60 μm | 210 μm | 175 μm | 130 μm | 320 μm | 255 μm | 215 μm | 60 μm | 50 μm | 40 μm | 185 μm | 170 μm | 110 μm | 315 μm | 250 μm | 210 μm | 1 μm | 2 μm | Minimum d10 Xc(min) ([1]; dispersion pressure 460 kPa): 2 μm; Minimum d50 XFe(max) ([1]; dispersion pressure 460 kPa): 55 μm; Minimum d50 Xarea ([1]; dispersion pressure 460 kPa): 40 μm; Minimum d50 Xc(min) ([1]; dispersion pressure 460 kPa): 30 μm; Minimum d90 XFe(max) ([1]; dispersion pressure 460 kPa): 150 μm; Minimum d90 Xarea ([1]; dispersion pressure 460 kPa): 110 μm; Minimum d90 Xc(min) ([1]; dispersion pressure 460 kPa): 110 μm
O=C(CO)C(O)C(O)C(O)CO (stereo not shown) [Example 1, allulose] | 105 μm | 90 μm | 72 μm | 230 μm | 190 μm | 150 μm | 350 μm | 270 μm | 235 μm | 75 μm | 75 μm | 55 μm | 220 μm | 195 μm | 125 μm | 335 μm | 280 μm | 225 μm | 10 μm | 12 μm | Minimum d10 Xc(min) ([1]; dispersion pressure 460 kPa): 12 μm; Minimum d50 XFe(max) ([1]; dispersion pressure 460 kPa): 70 μm; Minimum d50 Xarea ([1]; dispersion pressure 460 kPa): 55 μm; Minimum d50 Xc(min) ([1]; dispersion pressure 460 kPa): 45 μm; Minimum d90 XFe(max) ([1]; dispersion pressure 460 kPa): 175 μm; Minimum d90 Xarea ([1]; dispersion pressure 460 kPa): 135 μm; Minimum d90 Xc(min) ([1]; dispersion pressure 460 kPa): 135 μm
C=C1C[C@@]23CC[C@H]4[C@@](C)(CCC[C@@]4(C)C(=O)O[C@@H]4O[C@H](CO)[C@@H](O)[C@H](O)[C@H]4O)[C@@H]2CC[C@]1(O[C@@H]1O[C@H](CO)[C@@H](O)[C@H](O)[C@H]1O[C@@H]1O[C@H](CO)[C@@H](O)[C@H](O)[C@H]1O)C3 [stevioside] | – | – | – | – | – | – | – | – | – | – | – | – | – | – | – | – | – | – | – | – | Daily intake considered harmless [2]: up to 4 mg per kilogram of body weight
